Read-outs that look alike come from different tables or passages of the source.
Assays:
[1] = Phase I pharmacokinetic study of oral tenatoprazole, single dose and daily dose for 7 days; format: in vivo, human (Caucasian individuals); conditions: for half-life: human, plasma, oral, depending on the dose (10-80 mg), read-out: mean elimination half-lives
Protocol: The doses tested were 10, 20, 40 and 80 mg of tenatoprazole.
In this table, the abbreviations employed have the following meanings: • Cmax maximum concentration • Tmax time required to attain maximum concentration • T1/2 elimination half-life • AUC0-t area under the curve, between time 0 and the last measurable concentration.

[2] = patients under treatment; cited from earlier work

Row | SMILES | plasma half-life/pump regeneration time ratio ([1]; compared with other proton pump inhibitors) | half-life ([1]; after a single dose) [min] | half-life ([1]; after administration for seven days) [min] | Cmax, AUC0-t and AUC0-inf values versus dose ([1]; single or repeated administration, AUC0-inf calculated by extrapolation) | percentage of minor disorders observed in patients: dyspeptic symptoms [2] [%] | percentage of minor disorders observed in patients: gastric pain [2] [%] | percentage of minor disorders observed in patients: nausea [2] [%]
1 | COc1ccc2[nH]c([S+]([O-])Cc3ncc(C)c(OC)c3C)nc2n1 (stereo not shown) [tenatoprazole, 5-methoxy-2-[[(4-methoxy-3,5-dimethyl-2-pyridyl)methyl]sulfinyl]imidazo[4,5-b]pyridine] | notably higher than that seen with other proton pump inhibitors | 300 to 360 | 300 to 570 | increased in a linear fashion |  |  | 
2 | Cc1ccc(-c2cc(C(F)(F)F)nn2-c2ccc(S(N)(=O)=O)cc2)cc1 [celecoxib] |  |  |  |  | 4.8 | 4.8 | 2.4
